According to US8227232B2, “Thermostable L-ribose isomerase and method for producing same and use of same” (National University Corporation Kagawa Univeristy, priority 2006, dated 2012):

Experiments:
[1] = system: thermostable L-ribose isomerase derived from Raoultella ornithinolytica; assay: L-ribose isomerase activity assay on various aldose substrates (cysteine/carbazole method); type: biochemical; conditions: aldose as substrate; for relative activity to the activity on L-ribose: activity on L-ribose designated as 100%
Procedure: The activity of the L-ribose isomerase of the invention can be assayed as follows. 0.05 ml of 0.05 M glycine-NaOH buffer (pH 9.0), 0.05 ml of 0.05 M L-ribose and the enzyme solution were mixed together to a total volume of 0.5 ml, for the enzyme reaction at 45° C., to generate L-ribulose, which is assayed by the cysteine/carbazole method. One unit of the enzyme activity is designated as the enzyme amount to generate 1 μmol of L-ribulose per one minute.
Using 50 mM L-ribose as a substrate, the enzyme reaction continued at 45° C. for 10 minutes, so that the amount of the generated ketose (L-ribulose) was assayed by the cysteine/carbazole method. As to the temperature stability, the enzyme activity was assayed after 10-min treatment at individual temperatures. As to the optimal pH conditions, the enzyme reaction was performed at 45° C. for 10 minutes in 50 mM acetate buffer (pH 2 to 6), 50 mM sodium phosphate buffer (pH 6 to 8), 50 mM Tris-HCl buffer (pH 8 to 9) or 50 mM glycine-sodium hydroxide buffer (pH 9 to 11), using 50 mM L-ribose as substrate, to assay the amount of a ketose (L-ribulose) generated thereafter by the cysteine/carbazole method (Table 2). The enzyme reaction was done at the composition shown in Table 2 at 45° C. for 10 minutes (Table 3), and the reaction was terminated by adding 50 μl of 10% TCA (trichloroacetic acid). […] After completion of the reaction, absorbance at 540 nm was measured with an ultraviolet/visible spectrophotometer V530 (JASCO Corporation). Additionally, the amount of the enzyme generating 1 μmol L-ribulose per one minute was designated as one unit.
According to the assay method of the activity, the activity of the enzyme was assayed, using various aldose types as substrates. The activities on various aldose types are shown in relative activities to the activity on L-ribose, which is designated as 100%.

[2] = system: thermostable L-ribose isomerase from Raoultella ornithinolytica; assay: Confirmation of enzyme reaction product by HPLC; type: biochemical; conditions: 50 mM substrate, crude enzyme solution, 40° C., 24 hours
Procedure: A crude enzyme solution (0.65 U/ml) was recovered after culturing in a culture medium with 0.1% D-lyxose in 2% TSB, at 37° C. for 2 days and ultrasonication for extraction; 150 μl of the crude enzyme solution reacted with 50 mM of a substrate including individual ketose types such as L-ribose, D-fructose, D-tagatose and L-psicose at 40° C. for 24 hours. After reaction, the enzyme was inactivated under heating in hot water for 2 minutes, and centrifuged at 12,000 rpm for 5 minutes to recover the supernatant. Then, about 2 spoonfuls of a desalted resin (mixed and dried at a ratio of IRA411:SKIB=2:1) in a microspatula were added to the resulting supernatant, for mixing under inversion. After one hour, the solution was filtered through a 0.45-μm filter, for high-performance liquid chromatography (HPLC). As the column, Hitachi HPLC column GL-C611 (manufactured by Hitachi Chemical Industry Co., Ltd.) was used; as the detector, a differential refractive meter (L-7490 refractive index detector manufactured by Hitachi Hightech Co., Ltd.) was used. While the column was retained at 60° C., 10^−4 M sodium hydroxide solution as an eluent was used at a flow rate of 1.0 mL/min. The resulting signals were collected and analyzed with a data analysis software (SmartChrom, manufactured by KYA Technologies Co., Ltd.).

| SMILES | relative activity to the activity on L-ribose [1] [%] | activity of the enzyme for the substrate (in words) [1] | product generated from the substrate [2] |
| --- | --- | --- | --- |
| O=C[C@@H](O)[C@@H](O)[C@@H](O)[C@H](O)CO [D-tallose] | 56.9 | exerted activities | – |
| O=C[C@@H](O)[C@@H](O)[C@H](O)CO [D-lyxose] | 15.3 | exerted activities | – |
| O=C[C@@H](O)[C@@H](O)[C@@H](O)CO [L-ribose] | 100 | highest activity | L-ribulose is generated |
| O=C[C@@H](O)[C@H](O)[C@H](O)[C@H](O)CO [D-altrose] | – | never exerts any activities | – |
| O=C[C@H](O)[C@H](O)[C@H](O)[C@H](O)CO [D-allose] | – | never exerts any activities | – |

Further lines, results first:

| relative activity to the activity on L-ribose [1] [%] | activity of the enzyme for the substrate (in words) [1] | product generated from the substrate [2] | SMILES |
| --- | --- | --- | --- |
| – | – | D-mannose is generated | O=C(CO)[C@@H](O)[C@H](O)[C@H](O)CO [D-fructose] |
| 2.2 | exerted activities | – | O=C[C@@H](O)[C@@H](O)[C@@H](O)[C@@H](O)CO [L-allose] |
| – | – | D-tallose is generated | O=C(CO)[C@@H](O)[C@@H](O)[C@H](O)CO [D-tagatose] |
| – | – | L-allose is generated | O=C(CO)[C@@H](O)[C@@H](O)[C@@H](O)CO [L-psicose] |
| – | never exerts any activities | – | O=C[C@H](O)[C@@H](O)[C@H](O)[C@H](O)CO [D-glucose] |
| – | exerted activities | – | O=C[C@@H](O)[C@@H](O)[C@H](O)[C@H](O)CO [D-mannose] |
